Test [1] has as its system liver cancer cell line HepG2. Description: HepG2 in vitro liver toxicity assay (ATPlite). It counts as cell-based. The conditions noted are these: Homo sapiens, HepG2, about 72 hours incubation. As for the experimental part:
(§1) Cell antiproliferation is assayed by PerkinElmer ATPlite™ Luminescence Assay System. Briefly, the liver cancer cell line HepG2 are plated at a density of about 1×10^4 cells per well in Costar 96-well plates, and are incubated with different concentrations of compounds for about 72 hours in medium supplemented with 5% FBS. One lyophilized substrate solution vial is then reconstituted by adding 5 mL of substrate buffer solution, and is agitated gently until the solution is homogeneous. About 50 μL of mammalian cell lysis solution is added to 100 μL of cell suspension per well of a microplate, and the plate is shaken for about five minutes in an orbital shaker at −700 rpm. This procedure is used to lyse the cells and to stabilize the ATP. Next, 50 μL substrate solution is added to the wells and microplate is shaken for five minutes in an orbital shaker at −700 rpm. Finally, the luminescence is measured by a PerkinElmer TopCount® Microplate Scintillation Counter. Such assays, carried out with a range of doses of test compounds, allow the determination of the cellular anti-antiproliferative IC50 of the compounds of the present invention.

The next test concerns the target BLK (Homo sapiens, UniProt P51451). Put plainly: Caliper-based kinase assay, off-target BLK. The format is biochemical. The note with it: Cys-481 homologous kinase panel. From the text: (§2) A Caliper-based kinase assay (Caliper Life Sciences, Hopkinton, Mass.) was used to measure inhibition of kinase activity of compounds of the present disclosure. […]
Another test addresses T1, BMX (Homo sapiens, UniProt P51813).
T1 sequence (P51813 1-675): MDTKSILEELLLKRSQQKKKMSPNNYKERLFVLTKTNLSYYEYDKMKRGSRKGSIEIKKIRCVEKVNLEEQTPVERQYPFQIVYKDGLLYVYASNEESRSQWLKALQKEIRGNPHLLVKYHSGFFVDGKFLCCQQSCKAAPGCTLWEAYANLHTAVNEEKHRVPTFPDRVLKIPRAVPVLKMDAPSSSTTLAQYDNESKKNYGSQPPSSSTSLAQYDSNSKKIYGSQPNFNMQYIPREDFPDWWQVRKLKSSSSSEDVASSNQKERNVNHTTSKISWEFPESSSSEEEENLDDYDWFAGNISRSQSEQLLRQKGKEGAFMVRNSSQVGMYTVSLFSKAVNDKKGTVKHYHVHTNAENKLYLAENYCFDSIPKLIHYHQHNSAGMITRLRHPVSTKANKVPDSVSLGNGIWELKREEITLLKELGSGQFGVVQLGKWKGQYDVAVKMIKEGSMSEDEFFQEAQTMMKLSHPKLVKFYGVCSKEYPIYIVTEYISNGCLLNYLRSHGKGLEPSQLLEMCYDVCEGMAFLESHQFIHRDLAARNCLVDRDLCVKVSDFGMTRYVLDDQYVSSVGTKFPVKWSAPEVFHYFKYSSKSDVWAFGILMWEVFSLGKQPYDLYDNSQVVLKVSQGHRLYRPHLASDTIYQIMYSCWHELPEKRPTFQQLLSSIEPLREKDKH
Description: Caliper-based kinase assay, off-target BMX. The format is biochemical. The conditions noted are these: Cys-481 homologous kinase panel.
From the text: as §2

The next test concerns the target T2, TEC (Homo sapiens, UniProt P42680).
T2 sequence (P42680 1-631): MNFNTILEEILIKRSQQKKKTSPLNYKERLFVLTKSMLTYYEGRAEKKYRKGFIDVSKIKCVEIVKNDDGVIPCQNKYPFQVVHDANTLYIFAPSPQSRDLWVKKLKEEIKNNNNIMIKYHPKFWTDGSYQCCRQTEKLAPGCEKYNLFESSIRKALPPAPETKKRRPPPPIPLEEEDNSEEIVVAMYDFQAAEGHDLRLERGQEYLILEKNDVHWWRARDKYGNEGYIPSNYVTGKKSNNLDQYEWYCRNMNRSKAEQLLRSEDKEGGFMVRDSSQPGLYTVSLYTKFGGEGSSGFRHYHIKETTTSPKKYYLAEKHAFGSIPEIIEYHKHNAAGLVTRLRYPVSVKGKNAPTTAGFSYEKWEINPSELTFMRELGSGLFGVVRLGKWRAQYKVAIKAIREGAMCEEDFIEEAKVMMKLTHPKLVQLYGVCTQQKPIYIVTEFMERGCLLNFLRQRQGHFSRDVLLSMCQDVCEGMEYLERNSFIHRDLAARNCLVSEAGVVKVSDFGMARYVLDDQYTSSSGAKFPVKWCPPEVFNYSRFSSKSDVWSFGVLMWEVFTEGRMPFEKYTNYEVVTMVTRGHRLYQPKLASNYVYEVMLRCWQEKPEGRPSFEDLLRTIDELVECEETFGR
Description: Caliper-based kinase assay, off-target TEC. The note with it: Cys-481 homologous kinase panel. The format is biochemical.
From the text: as §2

The next test addresses EGFR (Homo sapiens, UniProt P00533). Description: Caliper-based kinase assay, off-target EGFR. The format is biochemical. The conditions noted are these: Cys-481 homologous kinase panel.
From the text: as §2

The next test has as its target HER2 (Homo sapiens, UniProt P04626). Description: Caliper-based kinase assay, off-target HER2. It counts as biochemical. The conditions noted are these: Cys-481 homologous kinase panel.
From the text: as §2

In another test the test system is human primary hepatocyte. Put plainly: Human primary hepatocyte cytotoxicity (ATPlite). It counts as cell-based. The conditions noted are these: about 72 hours incubation. As for the experimental part:
as §1, with “viability assay” for “antiproliferation”, “human primary hepatocyte” for “liver cancer cell line HepG2”

pIC50: −log10 of the molar value. Where two headings read alike, the source gives them in different places.

The values that follow come from patent US20220363689A1, “INHIBITOR OF BTK AND MUTANTS THEREOF” (Newave Pharmaceutical Inc., priority 2019, published 2022).

Sequence of HER2 (P04626 23-1255): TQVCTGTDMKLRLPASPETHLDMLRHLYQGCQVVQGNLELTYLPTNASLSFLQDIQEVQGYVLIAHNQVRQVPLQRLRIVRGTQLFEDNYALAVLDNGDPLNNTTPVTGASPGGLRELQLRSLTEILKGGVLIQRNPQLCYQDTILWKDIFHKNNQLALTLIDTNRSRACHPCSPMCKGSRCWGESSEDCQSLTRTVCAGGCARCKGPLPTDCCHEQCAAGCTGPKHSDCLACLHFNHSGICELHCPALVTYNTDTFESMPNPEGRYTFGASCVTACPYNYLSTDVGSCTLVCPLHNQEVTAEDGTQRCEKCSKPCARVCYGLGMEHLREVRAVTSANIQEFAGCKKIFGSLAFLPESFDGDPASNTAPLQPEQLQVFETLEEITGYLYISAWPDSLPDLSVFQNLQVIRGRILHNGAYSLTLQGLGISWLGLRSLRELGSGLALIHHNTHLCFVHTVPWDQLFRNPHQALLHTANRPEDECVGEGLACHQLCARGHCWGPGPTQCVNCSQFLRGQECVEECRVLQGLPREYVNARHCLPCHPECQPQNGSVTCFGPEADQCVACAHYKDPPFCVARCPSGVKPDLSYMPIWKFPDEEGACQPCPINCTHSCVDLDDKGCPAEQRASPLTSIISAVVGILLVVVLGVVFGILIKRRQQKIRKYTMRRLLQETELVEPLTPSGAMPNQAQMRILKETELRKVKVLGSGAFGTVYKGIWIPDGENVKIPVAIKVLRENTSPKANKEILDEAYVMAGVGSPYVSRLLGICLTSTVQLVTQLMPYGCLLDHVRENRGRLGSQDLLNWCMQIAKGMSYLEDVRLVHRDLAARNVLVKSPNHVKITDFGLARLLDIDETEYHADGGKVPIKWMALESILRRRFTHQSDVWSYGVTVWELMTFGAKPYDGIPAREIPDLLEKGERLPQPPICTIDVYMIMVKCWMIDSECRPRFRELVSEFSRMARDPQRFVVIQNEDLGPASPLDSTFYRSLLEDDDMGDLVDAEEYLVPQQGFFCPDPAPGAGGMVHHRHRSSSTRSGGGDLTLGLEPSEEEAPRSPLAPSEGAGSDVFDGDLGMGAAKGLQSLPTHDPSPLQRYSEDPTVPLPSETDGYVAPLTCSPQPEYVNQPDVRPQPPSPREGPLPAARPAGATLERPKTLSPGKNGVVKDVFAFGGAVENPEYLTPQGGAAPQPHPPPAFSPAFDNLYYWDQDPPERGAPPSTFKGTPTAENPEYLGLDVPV
Sequence of EGFR (P00533 25-1210): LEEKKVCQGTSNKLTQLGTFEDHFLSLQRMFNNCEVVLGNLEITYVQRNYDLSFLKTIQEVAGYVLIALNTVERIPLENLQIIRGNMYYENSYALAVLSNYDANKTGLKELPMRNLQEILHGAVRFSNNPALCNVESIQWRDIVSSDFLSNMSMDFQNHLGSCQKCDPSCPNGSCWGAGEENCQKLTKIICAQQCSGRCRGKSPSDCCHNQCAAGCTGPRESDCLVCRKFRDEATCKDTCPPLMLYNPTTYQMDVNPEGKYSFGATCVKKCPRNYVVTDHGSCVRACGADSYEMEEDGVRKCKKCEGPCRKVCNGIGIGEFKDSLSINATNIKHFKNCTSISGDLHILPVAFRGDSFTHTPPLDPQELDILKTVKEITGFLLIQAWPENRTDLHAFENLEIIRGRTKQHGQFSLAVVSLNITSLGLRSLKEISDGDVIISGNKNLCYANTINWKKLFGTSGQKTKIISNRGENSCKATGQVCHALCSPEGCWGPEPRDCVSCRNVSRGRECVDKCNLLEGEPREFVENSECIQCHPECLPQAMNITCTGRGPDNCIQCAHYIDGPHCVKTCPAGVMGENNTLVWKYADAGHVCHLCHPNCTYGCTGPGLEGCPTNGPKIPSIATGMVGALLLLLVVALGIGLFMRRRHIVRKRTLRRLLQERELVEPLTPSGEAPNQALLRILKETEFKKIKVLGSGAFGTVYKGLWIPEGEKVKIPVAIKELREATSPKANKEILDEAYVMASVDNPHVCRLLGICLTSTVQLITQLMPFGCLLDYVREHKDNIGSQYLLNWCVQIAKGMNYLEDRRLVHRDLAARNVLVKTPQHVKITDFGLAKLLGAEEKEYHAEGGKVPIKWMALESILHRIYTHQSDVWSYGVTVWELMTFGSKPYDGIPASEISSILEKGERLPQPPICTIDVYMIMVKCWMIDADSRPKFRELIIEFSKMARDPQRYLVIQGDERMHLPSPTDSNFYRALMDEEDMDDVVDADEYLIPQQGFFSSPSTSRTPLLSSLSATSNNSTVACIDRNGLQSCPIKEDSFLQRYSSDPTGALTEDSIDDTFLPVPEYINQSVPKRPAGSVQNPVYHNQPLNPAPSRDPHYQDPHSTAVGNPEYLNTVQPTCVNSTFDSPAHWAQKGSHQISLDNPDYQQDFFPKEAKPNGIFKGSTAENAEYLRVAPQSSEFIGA
Sequence of BLK (P51451 whole entry): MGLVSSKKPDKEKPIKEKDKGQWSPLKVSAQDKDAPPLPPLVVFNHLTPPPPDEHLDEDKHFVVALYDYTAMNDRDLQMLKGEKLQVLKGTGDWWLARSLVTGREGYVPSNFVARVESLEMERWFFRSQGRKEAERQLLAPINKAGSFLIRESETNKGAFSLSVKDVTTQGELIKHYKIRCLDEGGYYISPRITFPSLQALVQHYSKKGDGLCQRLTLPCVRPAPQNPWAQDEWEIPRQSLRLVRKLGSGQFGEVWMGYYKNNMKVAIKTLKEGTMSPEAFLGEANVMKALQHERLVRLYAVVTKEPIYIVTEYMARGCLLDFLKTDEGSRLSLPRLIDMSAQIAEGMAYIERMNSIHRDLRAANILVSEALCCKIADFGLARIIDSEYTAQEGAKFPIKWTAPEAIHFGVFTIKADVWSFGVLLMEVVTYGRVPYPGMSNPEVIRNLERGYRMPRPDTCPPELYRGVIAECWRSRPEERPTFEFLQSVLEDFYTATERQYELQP

For orientation: pIC50 means the IC50 on a negative log10 scale, so that one unit is a factor of ten. Take `C=CC(=O)Nc1cc(Nc2nc(-c3ccnc(N4CCn5c(cc6c5CC(C)(C)C6)C4=O)c3CO)cn(C)c2=O)ccc1N1CCN(C2CCOCC2)C[C@H]1C(F)(F)F` [Example 48-S, N-(5-[[6-(2-[4,4-dimethyl-9-oxo-1,10-diazatricyclo[6.4.0.0^[2,6]]dodeca-2(6),7-dien-10-yl]-3-(hydroxymethyl)pyridin-4-yl)-4-methyl-3-oxopyrazin-2-yl]amino]-2-[(2S)-4-(oxan-4-yl)-2-(trifluoromethyl)piperazin-1-yl]phenyl)prop-2-enamide]: the pIC50 in test [1] (read-out: HepG2 IC50) was 4.19; against BLK it was less than 6.00; at BMX it was 6.81; against TEC, 6.82; on EGFR it was less than 6.00; against HER2, less than 6.00. The pIC50 in the test with human primary hepatocyte is 4.39.

With `CC(C)(/C=C(\C#N)C(=O)N1CCC[C@@H](n2nc(-c3ccc(Oc4ccccc4)cc3F)c3c(N)ncnc32)C1)N1CCN(C2COC2)CC1` [PRN-1008, reference compound], the pIC50 in test [1] (read-out: HepG2 IC50) is 4.40; on BLK, 8.51; on BMX it was 9.44; on TEC it was 9.17; against EGFR, 6.57; against HER2, less than 6.00. Besides, in the test with human primary hepatocyte, the pIC50 was 4.63.

Take `C=CC(=O)Nc1cc(Nc2nc(-c3ccnc(N4CCc5c(sc6c5CCCC6)C4=O)c3CO)cn(C)c2=O)ccc1N1CCN(C2CCOCC2)C[C@H]1C(F)(F)F` [Example 55-S, N-[5-([6-[3-(hydroxymethyl)-2-[6-oxo-8-thia-5-azatricyclo[7.4.0.0^[2,7]]trideca-1(9), 2(7)-dien-5-yl]pyridin-4-yl]-4-methyl-3-oxopyrazin-2-yl]amino)-2-[(2S)-4-(oxan-4-yl)-2-(trifluoromethyl)piperazin-1-yl]phenyl]prop-2-enamide]: the pIC50 in test [1] (read-out: HepG2 IC50) is 3.71; in test [1] (another experiment, read-out: HepG2 IC50 (another experiment)), less than 3.70; on BLK, less than 6.00; against BMX, 6.74; at TEC, 6.16; against EGFR it was less than 6.00. The pIC50 against HER2 is less than 6.00; with human primary hepatocyte it was less than 4.00.
